Drawing on US11464783B2, “Heterocyclic compounds” (Aligos Therapeutics, Inc., priority 2019, dated 2022), this text covers EC50 for 33 compounds.

In general, EC50 refers to the concentration that produces a half-maximal response. Higher therefore signals weaker potency.

The assay concerns HBV. Kind of assay: HBV-DNA Antiviral Assay Using HepG2.117 Cells. The assay is classed as cell-based. The note with it: intracellular HBV DNA by qPCR, day 4. How it is done: The following assay procedure describes the HBV antiviral assay, using HepG2.117 cells, which carry a stably integrated genotype D HBV genome under the control of a Tet-off promoter, and intracellular HBV DNA quantification as endpoint. Cell viability is assessed in parallel by measuring the intracellular ATP content using ATPlite (Perkin Elmer).
On day 0, HepG2.117 cells (which are maintained in routine cell culture with doxycycline present in the medium at a final concentration of 1 μg/mL) were seeded in 96-well plates (white with clear bottom) at a density of 2.0×10^4 cells/well (0.1 mL/well) in medium without doxycycline to induce pgRNA transcription and subsequent formation of HBV particles. The cells were incubated at 37° C. and 5% CO2.
On day 1, medium was removed from each well, the test articles were diluted in culture medium without doxcycyline and 100 μL was added to cell culture wells (9 concentrations, 4-fold dilution). For each plate, 6 untreated (merely DMSO) wells were included. The final concentration of DMSO in the culture medium was 2%. Each plate was prepared in duplicate (one for HBV DNA extraction, one for ATPlite measurement). The cells were incubated at 37° C. and 5% CO2 for 3 days.
On day 4, cell viability was assessed using ATPlite and cell lysates were prepared for HBV DNA extraction and subsequent quantification by qPCR.
Medium was removed from each well and 100 μL of 0.33% NP-40 in H2O was added to each well. Plates were sealed, incubated at 4° C. for 5 mins, vortexed extensively and centrifuged briefly. Next, 35 μL of lysate was added to 65 μL QuickExtract DNA Extraction Solution (Epicentre) in a PCR plate for each well. PCR plate was incubated at 65° C. for 6 mins, 98° C. for 2 mins and finally cooled to 4° C. HBV DNA was then quantified by qPCR with HBV-specific primers and probes as specified in Table 2 using the Bio-Rad SSOAdvanced Universal Probes Supermix on a CFX96 machine (Bio-Rad). The PCR cycle program consisted of 95° C. for 3 mins, followed by 40 cycles at 95° C. for 10 sec and 60° C. for 30 sec.
A DNA standard was prepared by dilution of an IDT gBlock corresponding to the amplicon with concentrations ranging from 10^2 to 10^8 copies/input (i.e. per 4 μL) and used to generate a standard curve by plotting Cq values vs. HBV DNA standard concentration. The quantity of HBV DNA in each sample was determined by interpolating from the standard curve.
Cell viability was calculated as follows: % Cell viability=(luminescence value of test sample)/(average luminescence value of 2% DMSO control)×100%. HBV DNA inhibition was calculated as follows: 100−(HBV DNA copy number of test sample)/(average HBV DNA copy number of 2% DMSO control)×100%. No normalization to entecavir was required due to the excellent dynamic window of this assay. The CC50, EC so and EC90 values were determined by dose-response curves fitted by GraphPad Prism using “log (agonist) vs. response—Variable slope”.
On the technique in general: In qPCR the cycle at which signal appears reflects the starting amount.

[1] abbreviates: Hepatitis B virus, HepG2.117, 96 h.

Some results are limits rather than exact numbers.

Under setting [1], `C[C@@H]1CS(=O)(=O)[C@H](c2cccs2)CN1C(=O)Nc1ccc(F)c(Cl)c1` [Compound 23, (2S,5R)-N-(3-chloro-4-fluorophenyl)-5-methyl-1,1-dioxo-2-(thiophen-2-yl)-1,4-thiomorpholine-4-carboxamide] showed an EC50 of 500 to 5000 nM.

For the compound `O=C(c1ccc(Br)c(Cl)c1)N1CCS(=O)(=O)[C@@](F)(c2ncc(Cc3ccccc3)o2)C1` [Compound 46a, (R)-(2-(5-benzyloxazol-2-yl)-2-fluoro-1,1-dioxidothiomorpholino)(4-bromo-3-chlorophenyl)methanone], the EC50 under setting [1] was ≤ 100 nM. On to `O=C(c1ccc(Br)c(Cl)c1)N1CCS(=O)(=O)[C@](F)(C(=O)NCCc2ccccc2)C1` [Compound 38a], for which the EC50 under setting [1] was > 5000 nM. For the compound `CC1(c2ncc(Cc3ccccc3)s2)CN(C(=O)c2ccc(Br)c(Cl)c2)CCS1(=O)=O` (racemic) [Compound 36a, (4-bromo-3-chloro-phenyl)-[rac-(2S)-2-(5-benzylthiazol-2-yl)-2-methyl-1,1-dioxo-1,4-thiazinan-4-yl]methanone], the EC50 is 500 to 5000 nM. `C[C@@H](c1cnc([C@@]2(F)CN(C(=O)c3ccc(Br)c(C#N)c3)CCS2(=O)=O)s1)c1ccccc1F` [Compound 43a]: the EC50 under setting [1] was ≤ 100 nM. As for `C[C@@H](c1cnc(C2(F)CN(C(=O)c3ccc(Br)c(Cl)c3)CCS2(=O)=O)s1)c1ccccc1F` (mixture of isomers) [Compound 42c, (rac-2S)-4-(4-bromo-3-chlorobenzoyl)-2-fluoro-2-[5-[(rac-1R)-1-(2-fluorophenyl)ethyl]-1,3-thiazol-2-yl]-1λ^6-thiomorpholine-1,1-dione], the half-maximal effective concentration (EC50) was > 5000 nM.

Consider `N#Cc1cc(C(=O)N2CCS(=O)(=O)[C@](F)(c3ncc(Cc4ccccc4)s3)C2)ccc1Br` [Compound 40a], for which the EC50 under setting [1] lay within 500 to 5000 nM.

Regarding `CC1(c2nccs2)CN(C(=O)c2ccc(Br)c(Cl)c2)CCS1(=O)=O` (stereo not drawn) [Compound 34], the EC50 under setting [1] was in the range of 500 to 5000 nM. The same measure, in the same setting: under `N=S1(=O)CCN(C(=O)Nc2ccc(F)c(Cl)c2)CC1c1cccs1` (stereo not drawn) [Compound 17, N-(3-chloro-4-fluoro-phenyl)-1-imino-1-oxo-2-(2-thienyl)-1,4-thiazinane-4-carboxamide] stands 500 to 5000 nM. For `C[C@H](c1cnc(C2(F)CN(C(=O)c3ccc(Br)c(Cl)c3)CCS2(=O)=O)s1)c1ccccc1F` (mixture of isomers) [Compound 42b, (rac-2R)-4-(4-bromo-3-chlorobenzoyl)-2-fluoro-2-[5-[(rac-1S)-1-(2-fluorophenyl)ethyl]-1,3-thiazol-2-yl]-1λ^6-thiomorpholine-1,1-dione], the 50% effective concentration (EC50) is ≤ 100 nM.

In the case of `CC(C)NC(=O)C1CN(C(=O)c2ccc(Br)c(Cl)c2)CCS1(=O)=O` (stereo not drawn) [Compound 1, 4-(4-bromo-3-chlorobenzoyl)-N-isopropylthiomorpholine-2-carboxamide 1,1-dioxide], the EC50 under setting [1] was in the range of 500 to 5000 nM.

Consider `C[C@@H]1CS(=O)(=O)[C@@](F)(c2ncc(Cc3ccccc3)s2)CN1C(=O)c1ccc(Br)c(Cl)c1` (stereo in doubt) [Compound 47b, (4-bromo-3-chloro-phenyl)-[(rac-2R,5R)-2-(5-benzylthiazol-2-yl)-2-fluoro-5-methyl-1,1-dioxo-1,4-thiazinan-4-yl]methanone], for which the EC50 is ≤ 100 nM. `O=C(c1ccc(Br)c(Cl)c1)N1CCS(=O)(=O)[C@@](F)(c2ncc(-c3ccccc3)s2)C1` [Compound 39]: the EC50 under setting [1] fell in the range of 500 to 5000 nM. `C[C@H]1CS(=O)(=O)[C@](F)(c2ncc(Cc3ccccc3)s2)CN1C(=O)c1ccc(Br)c(Cl)c1` (stereo in doubt) [Compound 48a, (4-bromo-3-chloro-phenyl)-[(rac-2S,5S)-2-(5-benzylthiazol-2-yl)-2-fluoro-5-methyl-1,1-dioxo-1,4-thiazinan-4-yl]methanone] showed a concentration giving a half-maximal response (EC50) of 100 to 500 nM. With `C[C@H](c1cnc([C@@]2(F)CN(C(=O)c3ccc(Br)c(C#N)c3)CCS2(=O)=O)s1)c1ccccc1F` [Compound 43b], under setting [1], the EC50 is ≤ 100 nM. `O=C(c1ccc(Br)c(Cl)c1)N1CCS(=O)(=O)C(c2ncc(Cc3ccccc3)s2)C1` (stereo not drawn) [Compound 30, (2-(5-benzylthiazol-2-yl)-1,1-dioxidothiomorpholino)(4-bromo-3-chlorophenyl)methanone]: the EC50 under setting [1] is 100 to 500 nM. Regarding `C[C@@H](c1cnc([C@]2(F)CN(C(=O)c3ccc(Br)c(C#N)c3)CCS2(=O)=O)s1)c1ccccc1F` [Compound 43c], under setting [1], the EC50 is 500 to 5000 nM.

In the case of `C[C@@H](c1ccccc1)c1cnc([C@@]2(F)CN(C(=O)c3ccc(Br)c(Cl)c3)CCS2(=O)=O)s1` [Compound 41b], the EC50 under setting [1] is ≤ 100 nM. On to `O=C(Nc1ccc(F)c(Cl)c1)N1CCS(=O)(=O)C(c2ccccc2)C1` (single isomer, unassigned) [Compound 18a, N-(3-chloro-4-fluoro-phenyl)-1, l-dioxo-2-phenyl-1,4-thiazinane-4-carboxamide], for which the EC50 was in the range of 500 to 5000 nM. For `O=C(c1cc(F)cc(Cl)c1)N1CCS(=O)(=O)C(c2cccs2)C1` (stereo not drawn) [Compound 13a, (3-chloro-5-fluoro-phenyl)-[1,1-dioxo-2-(2-thienyl)-1,4-thiazinan-4-yl]methanone], under setting [1], the EC50 lay in the range of 500 to 5000 nM. `Cn1cnc(-c2ccc(C3CN(C(=O)Nc4ccc(F)c(Cl)c4)CCS3(=O)=O)s2)c1` (stereo not drawn) [Compound 15a, N-(3-chloro-4-fluoro-phenyl)-2-[5-(1-methylimidazol-4-yl)-2-thienyl]-1,1-dioxo-1,4-thiazinane-4-carboxamide]: the concentration giving a half-maximal response (EC50) under setting [1] was in the range of 500 to 5000 nM.

`O=C(c1ccc(Br)c(Cl)c1)N1CCS(=O)(=O)[C@@](F)(C(=O)NCCc2ccccc2)C1` [Compound 38b] came in with an EC50 under setting [1] of 500 to 5000 nM. For `Cc1cc(Cl)ccc1C(=O)N1CCS(=O)(=O)C(c2cccs2)C1` (single isomer, unassigned) [Compound 12a, (4-chloro-2-methyl-phenyl)-[1,1-dioxo-2-(2-thienyl)-1,4-thiazinan-4-yl]methanone], the EC50 was > 5000 nM.

The compound `O=C(c1ccc(Br)c(Cl)c1)N1CCS(=O)(=O)[C@@](F)(c2ncc(Cc3ccccc3)s2)C1` [Compound 37b, (4-bromo-3-chloro-phenyl)-[(2R)-2-(5-benzylthiazol-2-yl)-2-fluoro-1,1-dioxo-1,4-thiazinan-4-yl]methanone] yielded an EC50 under setting [1] of 500 to 5000 nM. On the same count and under the same terms, with `N#Cc1cc(C(=O)N2CCS(=O)(=O)[C@](F)(c3ncc(Cc4ccccc4-c4ncccn4)s3)C2)ccc1Br` [Compound 45b] the figure was 500 to 5000 nM; with `C[C@]1(C(=O)NCc2ccccc2)CN(C(=O)c2ccc(Br)c(Cl)c2)CCS1(=O)=O` [Compound 33b], 500 to 5000 nM; with `C[C@@H](c1ccccc1)c1cnc([C@]2(F)CN(C(=O)c3ccc(Br)c(Cl)c3)CCS2(=O)=O)s1` [Compound 41d], 500 to 5000 nM. On the same count and under the same terms, with `C[C@@]1(C(=O)NCc2ccccc2)CN(C(=O)c2ccc(Br)c(Cl)c2)CCS1(=O)=O` [Compound 33a] the figure was 100 to 500 nM. Compound `O=C(c1ccc(Br)c(Cl)c1)N1CCS(=O)(=O)C(c2ccccc2)C1` (single isomer, unassigned) [Compound 19a, (4-bromo-3-chloro-phenyl)-(1,1-dioxo-2-phenyl-1,4-thiazinan-4-yl)methanone] gave a half-maximal effective concentration (EC50) of 100 to 500 nM. `O=C(c1ccc(Br)c(Cl)c1)N1CCS(=O)(=O)C(c2nc(Cc3ccccc3)cs2)C1` (stereo not drawn) [Compound 31, (2-(4-benzylthiazol-2-yl)-1,1-dioxidothiomorpholino)(4-bromo-3-chlorophenyl)methanone] displayed an EC50 under setting [1] of 100 to 500 nM. Same read-out and setting: with `O=C(c1ccc(Cl)cc1F)N1CCS(=O)(=O)C(c2cccs2)C1` (stereo not drawn) [Compound 10b, (4-chloro-2-fluoro-phenyl)-[1,1-dioxo-2-(2-thienyl)-1,4-thiazinan-4-yl]methanone] the figure was 500 to 5000 nM. In turn, `C[C@H]1CS(=O)(=O)[C@H](c2cccs2)CN1C(=O)Nc1ccc(F)c(Cl)c1` [Compound 20, (2S,5S)—N-(3-chloro-4-fluoro-phenyl)-5-methyl-1,1-dioxo-2-(2-thienyl)-1,4-thiazinane-4-carboxamide] displayed an EC50 under setting [1] of 500 to 5000 nM. Under setting [1], `O=C(NCc1ccccc1)C1CN(C(=O)c2ccc(Br)c(Cl)c2)CCS1(=O)=O` (stereo not drawn) [Compound 3, N-benzyl-4-(4-bromo-3-chlorobenzoyl)thiomorpholine-2-carboxamide 1,1-dioxide] displayed an EC50 of 100 to 500 nM.
